From patent US20250353891A1 (MEDIMMUNE LIMITED, priority 2022, published 2025) come the findings set out here.

The target of experiment [1] is human glucagon receptor (hGCGR) (Homo sapiens, UniProt P47871). The experiment in a line: cAMP production (HTRF) in CHO cells expressing hGCGR. The format is cell-based. Further details: expressed in transfected cells. The settings on record: Table 6, peptides modified at position 17; cAMP in CHO hGCGR cells; geometric mean; read-out: hGluc-R EC50. The gist of the method: (§1)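 Cells were resuspended in assay buffer at batch-optimized density, typically 1×10^5 cells/mL for hGLP-1R and 2×10^5 cells/mL for hGCGR. After 30 min incubation at room temperature with compound, cAMP was measured by two-step HTRF. EC50 values came from 4-parameter logistic fits of % Delta F.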
human glucagon receptor (hGCGR), sequence (P47871 26-477): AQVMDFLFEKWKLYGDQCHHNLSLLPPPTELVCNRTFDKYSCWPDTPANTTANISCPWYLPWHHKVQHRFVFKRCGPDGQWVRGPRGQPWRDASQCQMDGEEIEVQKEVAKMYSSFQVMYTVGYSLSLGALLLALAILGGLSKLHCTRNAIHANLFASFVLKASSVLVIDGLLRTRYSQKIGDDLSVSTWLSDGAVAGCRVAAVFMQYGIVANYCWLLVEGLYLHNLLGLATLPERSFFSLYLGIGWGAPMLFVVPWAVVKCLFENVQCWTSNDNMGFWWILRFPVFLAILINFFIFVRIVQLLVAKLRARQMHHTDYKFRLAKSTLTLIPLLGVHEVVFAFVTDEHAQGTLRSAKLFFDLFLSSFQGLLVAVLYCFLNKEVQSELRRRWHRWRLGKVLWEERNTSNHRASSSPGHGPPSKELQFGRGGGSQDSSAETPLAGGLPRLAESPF
For orientation: cAMP levels reflect the balance of adenylyl cyclase and phosphodiesterase activity.

Experiment [2] concerns the target human GLP-1 receptor (hGLP-1R) (Homo sapiens, UniProt P43220). In words: cAMP production (HTRF) in CHO cells expressing hGLP-1R. It counts as cell-based. Further details: expressed in transfected cells. The settings on record: for EC50: Table 6, peptides modified at position 17, cAMP in CHO hGLP-1R cells, geometric mean, read-out: hGLP-1R EC50; for % Relative Potency Ratio: Table 6, % GLP-1R activity relative to GLP-1 / % GlucR activity relative to glucagon. The essentials: as §1

Starred links: 1 amine or outer side, 2 acyl side, 3 side chain; linkers in the order of their positions; H or OH if unused. Non-standard residues stand in square brackets, D forms with d. Residues, ends and D or L forms follow the SMILES beside them. Groups on a side chain read outwards from the residue. *: point of attachment. C18 diacid = O=C(O)CCCCCCCCCCCCCCCCC(=O)*; γGlu = O=C(O)[C@H](CCC(=O)[*:2])N[*:1]; αMeF = C[C@](N)(Cc1ccccc1)C(=O)O; PEG4 = NCCOCCOCCOCCOCCC(=O)O; AEEA = NCCOCCOCC(=O)O; Aib = CC(C)(N)C(=O)O

human GLP-1 receptor (hGLP-1R), sequence (P43220 24-463): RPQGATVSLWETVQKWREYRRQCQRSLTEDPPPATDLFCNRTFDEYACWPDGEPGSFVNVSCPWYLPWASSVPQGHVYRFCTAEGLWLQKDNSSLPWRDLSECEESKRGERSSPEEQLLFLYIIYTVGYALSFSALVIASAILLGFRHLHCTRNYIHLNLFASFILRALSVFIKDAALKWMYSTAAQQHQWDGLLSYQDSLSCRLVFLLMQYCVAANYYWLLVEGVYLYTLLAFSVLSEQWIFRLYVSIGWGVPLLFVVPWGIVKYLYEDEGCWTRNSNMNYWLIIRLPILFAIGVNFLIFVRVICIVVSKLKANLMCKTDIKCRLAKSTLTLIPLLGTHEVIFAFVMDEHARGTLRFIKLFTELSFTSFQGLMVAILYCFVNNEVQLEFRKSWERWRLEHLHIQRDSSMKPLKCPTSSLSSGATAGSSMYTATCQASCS

Turning to `CC(C)C[C@H](NC(=O)[C@H](Cc1c[nH]c2ccccc12)NC(=O)[C@H](CCC(N)=O)NC(=O)[C@@H](NC(=O)[C@H](Cc1ccccc1)NC(=O)[C@H](CC(=O)O)NC(=O)[C@H](CCC(=O)O)NC(=O)[C@H](C)NC(=O)[C@H](CCCNC(=N)N)NC(=O)[C@H](CCCCNC(=O)COCCOCCNC(=O)COCCOCCNC(=O)CC[C@H](NC(=O)CCCCCCCCCCCCCCCCC(=O)O)C(=O)O)NC(=O)[C@H](CO)NC(=O)[C@H](CC(=O)O)NC(=O)[C@H](CC(C)C)NC(=O)[C@](C)(Cc1ccccc1)NC(=O)[C@H](CCCCN)NC(=O)[C@H](CO)NC(=O)[C@@H](NC(=O)[C@H](CC(=O)O)NC(=O)[C@H](CO)NC(=O)[C@@H](NC(=O)[C@H](Cc1ccccc1)NC(=O)[C@@H](NC(=O)CNC(=O)[C@H](CCC(N)=O)NC(=O)C(C)(C)NC(=O)[C@@H](N)Cc1c[nH]cn1)[C@@H](C)O)[C@@H](C)O)C(C)C)C(C)C)C(=O)N[C@@H](CC(C)C)C(=O)NC(C)(C)C(=O)N[C@H](C(=O)O)[C@@H](C)O` [Peptide 37] (H-H[Aib]QGTFTSDVSK[αMeF]LDSK([AEEA-AEEA-γGlu-C18 diacid])RAEDFVQWLL[Aib]T-OH), the EC50 in experiment [1] came to 2.75 nM. Moreover, in experiment [2], the EC50 amounted to 0.0686 nM and the “% Relative Potency Ratio” value was 79.2.

`CC(C)C[C@H](NC(=O)[C@H](Cc1c[nH]c2ccccc12)NC(=O)[C@H](CCC(=O)O)NC(=O)[C@@H](NC(=O)[C@H](Cc1ccccc1)NC(=O)[C@H](CC(=O)O)NC(=O)[C@H](CCC(N)=O)NC(=O)[C@H](C)NC(=O)[C@H](CCCNC(=N)N)NC(=O)[C@H](CCCCNC(=O)COCCOCCNC(=O)COCCOCCNC(=O)CC[C@H](NC(=O)CCCCCCCCCCCCCCCCC(=O)O)C(=O)O)NC(=O)[C@H](CO)NC(=O)[C@H](CC(=O)O)NC(=O)[C@H](CC(C)C)NC(=O)[C@](C)(Cc1ccccc1)NC(=O)[C@H](CCCCN)NC(=O)[C@H](CO)NC(=O)[C@@H](NC(=O)[C@H](CC(=O)O)NC(=O)[C@H](CO)NC(=O)[C@@H](NC(=O)[C@H](Cc1ccccc1)NC(=O)[C@@H](NC(=O)CNC(=O)[C@H](CCC(N)=O)NC(=O)C(C)(C)NC(=O)[C@@H](N)Cc1c[nH]cn1)[C@@H](C)O)[C@@H](C)O)C(C)C)C(C)C)C(=O)N[C@@H](CC(C)C)C(=O)NC(C)(C)C(=O)N[C@H](C(=O)O)[C@@H](C)O` [Peptide 38] (H-H[Aib]QGTFTSDVSK[αMeF]LDSK([AEEA-AEEA-γGlu-C18 diacid])RAQDFVEWLL[Aib]T-OH; N-terminus assumed): the EC50 was determined as 0.441 nM in experiment [1] and 0.0756 nM in experiment [2]. The “% Relative Potency Ratio” value in experiment [2] stood at 11.6.

Take `CC(C)C[C@H](NC(=O)[C@H](Cc1c[nH]c2ccccc12)NC(=O)[C@H](CCCNC(=N)N)NC(=O)[C@@H](NC(=O)[C@H](Cc1ccccc1)NC(=O)[C@H](CC(=O)O)NC(=O)[C@H](CCC(N)=O)NC(=O)[C@H](C)NC(=O)[C@H](CCCNC(=N)N)NC(=O)[C@H](CCCCNC(=O)COCCOCCNC(=O)COCCOCCNC(=O)CC[C@H](NC(=O)CCCCCCCCCCCCCCCCC(=O)O)C(=O)O)NC(=O)[C@H](CO)NC(=O)[C@H](CC(=O)O)NC(=O)[C@H](CC(C)C)NC(=O)[C@](C)(Cc1ccccc1)NC(=O)[C@H](CCCCN)NC(=O)[C@H](CO)NC(=O)[C@@H](NC(=O)[C@H](CC(=O)O)NC(=O)[C@H](CO)NC(=O)[C@@H](NC(=O)[C@H](Cc1ccccc1)NC(=O)[C@@H](NC(=O)CNC(=O)[C@H](CCC(N)=O)NC(=O)C(C)(C)NC(=O)[C@@H](N)Cc1c[nH]cn1)[C@@H](C)O)[C@@H](C)O)C(C)C)C(C)C)C(=O)N[C@@H](CC(C)C)C(=O)NC(C)(C)C(=O)N[C@H](C(=O)N[C@@H](CCC(=O)O)C(=O)O)[C@@H](C)O` [Peptide 39] (H-H[Aib]QGTFTSDVSK[αMeF]LDSK([AEEA-AEEA-γGlu-C18 diacid])RAQDFVRWLL[Aib]TE-OH; N-terminus assumed): the 50% effective concentration (EC50) in experiment [1] came out at 0.194 nM. In addition, in experiment [2], the EC50 worked out at 0.0761 nM and the “% Relative Potency Ratio” value is recorded as 5.0.

In the case of `CC(C)C[C@H](NC(=O)[C@H](Cc1c[nH]c2ccccc12)NC(=O)[C@H](CCC(N)=O)NC(=O)[C@@H](NC(=O)[C@H](Cc1ccccc1)NC(=O)[C@H](CC(=O)O)NC(=O)[C@H](CCC(N)=O)NC(=O)[C@H](C)NC(=O)[C@H](CCCNC(=N)N)NC(=O)[C@H](CCCCNC(=O)COCCOCCNC(=O)COCCOCCNC(=O)CC[C@H](NC(=O)CCCCCCCCCCCCCCCCC(=O)O)C(=O)O)NC(=O)[C@H](CO)NC(=O)[C@H](CC(=O)O)NC(=O)[C@H](CC(C)C)NC(=O)[C@](C)(Cc1ccccc1)NC(=O)[C@H](CCCCN)NC(=O)[C@H](CO)NC(=O)[C@@H](NC(=O)[C@H](CC(=O)O)NC(=O)[C@H](CO)NC(=O)[C@@H](NC(=O)[C@H](Cc1ccccc1)NC(=O)[C@@H](NC(=O)CNC(=O)[C@H](CCC(N)=O)NC(=O)C(C)(C)NC(=O)[C@@H](N)Cc1c[nH]cn1)[C@@H](C)O)[C@@H](C)O)C(C)C)C(C)C)C(=O)N[C@@H](CC(C)C)C(=O)NC(C)(C)C(=O)N[C@H](C(=O)O)[C@@H](C)O` [Peptide 40] (H-H[Aib]QGTFTSDVSK[αMeF]LDSK([AEEA-AEEA-γGlu-C18 diacid])RAQDFVQWLL[Aib]T-OH; N-terminus assumed), the EC50 in experiment [1] stood at 0.123 nM. Moreover, in experiment [2], the concentration for a half-maximal effect (EC50) was 0.0299 nM and the “% Relative Potency Ratio” value came to 8.2.

`CC(C)C[C@H](NC(=O)[C@H](Cc1c[nH]c2ccccc12)NC(=O)[C@H](CCC(N)=O)NC(=O)[C@@H](NC(=O)[C@H](Cc1ccccc1)NC(=O)[C@H](CC(=O)O)NC(=O)[C@H](CCC(N)=O)NC(=O)[C@H](C)NC(=O)[C@H](CCCNC(=N)N)NC(=O)[C@H](CCCCNC(=O)COCCOCCNC(=O)COCCOCCNC(=O)CC[C@H](NC(=O)CCCCCCCCCCCCCCCCC(=O)O)C(=O)O)NC(=O)[C@H](CO)NC(=O)[C@H](CC(=O)O)NC(=O)[C@H](CC(C)C)NC(=O)[C@](C)(Cc1ccccc1)NC(=O)[C@H](CCCCN)NC(=O)[C@H](CO)NC(=O)[C@H](Cc1ccc(O)cc1)NC(=O)[C@H](CC(=O)O)NC(=O)[C@H](CO)NC(=O)[C@@H](NC(=O)[C@H](Cc1ccccc1)NC(=O)[C@@H](NC(=O)CNC(=O)[C@H](CCC(N)=O)NC(=O)C(C)(C)NC(=O)[C@@H](N)Cc1c[nH]cn1)[C@@H](C)O)[C@@H](C)O)C(C)C)C(=O)N[C@H](C(=O)NCCOCCOCCOCCOCCC(N)=O)C(C)C` [Peptide 41] (H-H[Aib]QGTFTSDYSK[αMeF]LDSK([AEEA-AEEA-γGlu-C18 diacid])RAQDFVQWLV[PEG4]-NH2; N-terminus assumed): the 50% effective concentration (EC50) in experiment [1] was determined as 5.74 nM; in experiment [2] it was 0.663 nM. Moreover, the “% Relative Potency Ratio” value in experiment [2] is 17.1.

As usually defined, the EC50 is the concentration needed to bring the measured effect to its halfway point.
